Source: patent publication US8501955B2, “Acetamide derivatives as glucokinase activators, their process and medicinal application” (Advinus Therapeutics Private Limited, priority 2007, dated 2013)

What was measured:
[1] = Kamata et al (2004) Structure 12: 429-438; cited from earlier work
[2] = tested on: primary rat hepatocytes; test: Measurement of glycogen synthesis in primary rat hepatocytes; assay type: cell-based; settings: 10 mM glucose, fold increase over DMSO control; for Fold increase in glycogen synthesis at 10 μM compound: 3 hours; for fold induction at 10 µM: Rattus norvegicus, Hepatocyte, 3 h, 10 μM compound
Description: Primary hepatocytes are collected from male Wistar rats, and tested for viability by trypan blue exclusion. Primary hepatocytes cultures with viability greater than 95% are selected for the glycogen synthesis assay. The cells are seeded in a 48-well plate at a density of 200,000 cells/well in 250 μl Minimal Essential Medium (MEM) containing 10% foetal calf serum (FCS) and 1.7 μM insulin, and incubated for 4 hours at 37° C. to allow attachment. The medium is replaced with fresh MEM containing 10% FCS, 1.7 μM insulin and 10 nM dexamethasone, and the cells are incubated for 16 hours at 37° C. The medium is then replaced with fresh MEM (serum-free) containing 2 μCi/ml of D-[U^14C]-Glucose along with 10 μM of the compound in a final DMSO concentration of 0.1%. The final glucose concentration is brought to 10 mM by the addition of D-Glucose (MEM already contains 5 mM glucose). The cells are incubated for 3 hours at 37° C. The cells are washed twice with 150 mM NaCl, lysed with 0.1 N NaOH, and the lysate precipitated with 8% w/v trichloroacetic acid (TCA) and 1 mg/well unlabeled glycogen as carrier. Cell debris is pelleted by centrifugation, the supernatant is removed, and the glycogen is precipitated with 63% ethanol. After another round of centrifugation, the supernatant is removed, and the pellet containing the precipitated glycogen is dried overnight. De novo synthesized glycogen is estimated in a scintillation counter (MicroBeta Trilux, Perkin Elmer), and expressed as fold increase over DMSO control.
The protocol for the glycogen assay is based on the method described in “Biochem J. 1990 Feb. 15; 266(1): 91-102” with a few minor modifications. The protocol for isolation of primary rat hepatocytes is based on the method described in “Methods in Enzymology, Vol. III. pp 34-50. Ed. by S. P. Colowick and N. O. Kaplan. New York, Academic Press, 1957” with a few minor modifications.
Compounds described in formula (I), in concentration ranges from 1.0 nM to 500 μM, are tested in glycogen synthesis assay described above.

[3] = molecular target: T1, purified human recombinant GK (Homo sapiens, UniProt P35557); test: Glucokinase activity assay (coupled enzymatic GK/G6PD assay, NADH absorbance at 340 nm); assay type: biochemical; settings: for EC50: EC50 of % change in S0.5 of glucokinase for glucose, sigmoidal fit, read-out: EC50 (with respect to % ΔS0.5); for % Emax (with respect to % ΔS0.5) / Emax: Emax of % change in S0.5, vehicle S0.5 = 0%, 0 mM glucose = 100%; for Emax: read-out: % Emax (with respect to % ΔS0.5)
T1 sequence (P35557 1-465): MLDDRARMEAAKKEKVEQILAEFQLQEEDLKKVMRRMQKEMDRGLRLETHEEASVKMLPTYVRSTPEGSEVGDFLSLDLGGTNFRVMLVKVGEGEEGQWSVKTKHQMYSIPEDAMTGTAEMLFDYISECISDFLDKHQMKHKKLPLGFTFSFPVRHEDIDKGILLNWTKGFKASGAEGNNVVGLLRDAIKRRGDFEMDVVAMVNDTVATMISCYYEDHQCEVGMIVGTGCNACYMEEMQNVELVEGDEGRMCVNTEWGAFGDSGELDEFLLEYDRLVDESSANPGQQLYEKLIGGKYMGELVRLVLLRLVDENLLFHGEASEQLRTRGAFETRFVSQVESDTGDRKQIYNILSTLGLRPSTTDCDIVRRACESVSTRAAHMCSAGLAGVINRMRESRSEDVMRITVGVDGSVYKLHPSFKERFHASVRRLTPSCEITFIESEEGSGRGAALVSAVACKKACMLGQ
Source text: The glucokinase (GK) assay is a coupled enzymatic assay. GK catalyzes the first step of glycolysis, the conversion of glucose to glucose-6-phosphate (G6P) in the presence of ATP. G6P in turn is converted by glucose-6-phosphate dehydrogenase (G6PD) to 6-phosphogluconate, a process that requires NAD, resulting in NADH formation. Since the GK-catalyzed step is the rate-limiting step of this coupled enzymatic process, the rate of accumulation of 6-phosphogluconate and NADH is directly proportional to the rate of glucose phosphorylation by GK. The rate of the GK-catalyzed reaction can therefore be measured by monitoring the increase in NADH absorbance at 340 nm.
The assay is carried out according to the protocol outlined in Hariharan et al (1997), Diabetes 46: 11-16. Briefly, the test compounds are incubated in a reaction mix containing 25 mM HEPES (pH 7.2), 10 mM MgCl2, 100 mM KCl, 5 mM ATP, 2 mM DTT, 0.5 mM NAD, 1 U/ml Leuconostoc mesenteroides G6PD, 0.3 U/ml of purified human recombinant GK, and different concentrations of glucose. Enzymatic activity is calculated from the initial reaction velocity, measured from the change in NADH absorbance as a function of time.
Compounds described in formula (I), in concentration ranges from 1.0 nM to […] are tested in the purified human recombinant glucokinase assay described above.
A compound is considered to be a glucokinase activator if it, in its testable range of concentrations, yields a higher rate of glucose phosphorylation than in its absence at a particular glucose concentration, for example at 5 mM glucose.
Compounds of general formula (I) are tested in the in vitro GK enzymatic assay to monitor dose-dependent effect on glucokinase activation (in kinetic mode), as described above, at various glucose concentrations. The S0.5 of glucokinase for glucose at different concentration of each compound of interest is calculated from the following modified version of the Michaelis-Menten equation, V=Vmax[S]^n/(S0.5^n+[S]^n), where [S] is the glucose concentration and n is the Hill coefficient (taken as 1.7 to account for the sigmoidal kinetics of glucokinase with respect to glucose). The S0.5 is plotted against the log of the compound concentration. The change in the S0.5 of glucokinase (ΔS0.5) for glucose is calculated by subtracting the S0.5 at each concentration of the compound from the S0.5 in the vehicle control. The ΔS0.5 is then normalized to a percent scale, where the S0.5 in the vehicle control is set to 0% and 0 mM glucose is set to 100%. The % ΔS0.5 is then plotted against the log of the compound concentration. The EC50 and Emax of % change in S0.5 is obtained from the sigmoidal fit of the data. Detailed protocol has been described in our copending application no. WO 2008/104994 which is incorporated herein by reference. Characterization data of some representative glucokinase activators of the present disclosure, which are illustrative but not limiting, are given in table 1 below.

| melting point | EC50 [3] | % Emax (with respect to % ΔS0.5) [3] | Emax [3] | Compound | hypoglycemia in animal efficacy models [1] | Fold increase in glycogen synthesis at 10 μM compound [2] | fold induction at 10 µM [2] |
| --- | --- | --- | --- | --- | --- | --- | --- |
|  |  |  |  | Ro-28-1675 | cause hypoglycemia |  |  |
| 72 to 73 °C |  |  |  | O=C(O)Cc1csc(NC(=O)C(Oc2ccc(F)cc2)c2ccc(S(=O)(=O)C3CC3)cc2)n1 (centres unmarked) [Example B1, {2-[2-(4-Cyclopropanesulfonylphenyl)-2-(4-fluorophenoxy)acetylamino]thiazol-4-yl}acetic acid] |  |  |  |
|  | 1270 nM | 90% |  | O=C(O)Cc1nc(NC(=O)C(Oc2ccc(F)cc2F)c2ccc(S(=O)(=O)C3CC3)cc2)sc1Cl (single isomer, unassigned; (+)) [Example F1, (+)-{5-Chloro-2-[2-(4-cyclopropanesulfonyl-phenyl)-2-(2,4-difluorophenoxy)acetyl-amino]thiazol-4-yl}-acetic acid] |  | 4.5 fold |  |
|  | 370 nM |  | 95% | O=C(O)Cc1nc(NC(=O)C(Oc2ccc(F)cc2F)c2ccc(S(=O)(=O)C3CCCC3)cc2)sc1Cl (single isomer, unassigned; (-)) [Example E2, (−)-{5-Chloro-2-[2-(4-cyclopentanesulfonyl-phenyl)-2-(2,4-difluorophenoxy)acetyl-amino]thiazol-4-yl}-acetic acid] |  |  | 8.8 |
|  | 3300 nM |  | 95% | O=C(O)Cc1nc(NC(=O)C(Oc2ccc3[nH]ccc3c2)c2ccc(S(=O)(=O)C3CC3)cc2)sc1Cl (centres unmarked) [Example B19, {5-Chloro-2-[2-(4-cyclopropanesulfonylphenyl)-2-(1H-indol-5-yloxy)acetylamino]thiazol-4-yl}acetic acid] |  |  | 3.3 |
|  | 170 nM |  | 91% | O=C(O)c1cccc(Oc2cnc(NC(=O)C(OC3CCOCC3)c3ccc(S(=O)(=O)C4CC4)cc3)s2)c1 (centres unmarked) [Example B92, 3-{2-[2-(4-Cyclopropanesulfonyl-phenyl)-2-(tetrahydro-pyran-4-yloxy)-acetylamino]-thiazol-5-yloxy}-benzoic acid] |  |  | 7.8 |
|  | 200 nM |  | 95% | O=C(Nc1ncc(F)s1)C(Oc1ccc(F)cc1F)c1ccc(S(=O)(=O)C2CC2)cc1 (centres unmarked) [Example A3, 2-(4-Cyclopropanesulfonylphenyl)-2-(2,4-difluorophenoxy)-N-(5-fluorothiazol-2-yl)-acetamide] |  |  | 2.9 |
|  | 76 nM |  | 93% | COc1cnc(NC(=O)C(Oc2ccc(F)cc2F)c2ccc(S(=O)(=O)C3CC3)cc2)s1 (centres unmarked) [Example A75, 2-(4-Cyclopropanesulfonyl-phenyl)-2-(2,4-difluoro-phenoxy)-N-(5-methoxy-thiazol-2-yl)-acetamide] |  |  | 7.1 |
|  | 150 nM |  | 94% | O=C(Nc1nc2cccnc2s1)C(OC1CCOCC1)c1ccc(S(=O)(=O)C2CC2)cc1 (single isomer, unassigned; (-)) [Example H10A, (−)2-(4-Cyclopropanesulfonyl-phenyl)-2-(tetrahydro-pyran-4-yloxy)-N-thiazolo[5,4-b]pyridin-2-yl-acetamide] |  |  | 4.1 |
|  | 110 nM |  | 95% | O=C(Nc1nccs1)C(Oc1ccc(F)cc1F)c1ccc(S(=O)(=O)C2CCCC2)cc1 (centres unmarked) [Example A10, 2-(4-Cyclopentanesulfonylphenyl)-2-(2,4-difluorophenoxy)-N-thiazol-2-yl-acetamide] |  |  | 4.3 |
|  | 670 nM | 95% |  | O=C(O)Cc1nc(NC(=O)C(Oc2ccc(F)cc2F)c2ccc(S(=O)(=O)C3CCCC3)cc2)sc1Cl (single isomer, unassigned; (+)) [Example F2, (+)-{5-Chloro-2-[2-(4-cyclopentanesulfonyl-phenyl)-2-(2,4-difluorophenoxy)acety-lamino]thiazol-4-yl}acetic acid] |  | 7.2 fold |  |
|  | 1550 nM |  | 95% | O=C(O)Cc1nc(NC(=O)C(Oc2ccc(F)cc2F)c2ccc(S(=O)(=O)C3CC3)cc2)sc1Cl (single isomer, unassigned; (-)) [Example E1, (−)-{5-Chloro-2-[2-(4-cyclopropanesulfonyl-phenyl)-2-(2,4-difluorophenoxy)acetyl-amino]thiazol-4-yl}acetic acid] |  |  | 8.1 |
